“And” between values parts separate entries of the source, which are not always exact repeats. Equal entries are not always repeated.

The assay concerns 883617-216-R-J1-PDC complex spheroid viability. Nature of the assay: Anticancer human tumor 883617-216-R-J1-PDC patient-derived bladder carcinoma cell line growth inhibition. The conditions noted are these: for viability, T/C: stronger effect = lower value. The method, boiled down:
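Multicellular complex spheroids of tumor cells with human endothelial cells (HUVEC) and mesenchymal stem cells; the LSD1 inhibitor iadademstat was combined with standard-of-care or investigational agents. Top concentration at or near clinical Cmax, half-log dilutions; final DMSO ≤0.25%.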

Where [1] appears, read: curve of first compound, second compound 0.1 µM.
[2] abbreviates: curve of first compound, second compound 0.316 µM.
Setting [3] is: curve of first compound, second compound 1 µM.
Where [4] appears, read: curve of first compound, second compound 3.16 µM.
The mark [5] stands for this setting: curve of first compound, second compound 10 µM.
Setting [6] is: second compound 0.1 µM, first compound 0.00949 µM.
Where [7] appears, read: second compound 0.1 µM, first compound 0.03 µM.
The mark [8] stands for this setting: second compound 0.1 µM, first compound 0.0949 µM.
The mark [9] stands for this setting: second compound 0.1 µM, first compound 0.3 µM.
Setting [10] is: second compound 0.1 µM, first compound 0.949 µM.
Setting [11] is: second compound 0.1 µM, first compound 3 µM.
The mark [12] stands for this setting: second compound 0.316 µM, first compound 0.00949 µM.
The mark [13] stands for this setting: second compound 0.316 µM, first compound 0.03 µM.
Setting [14] is: second compound 0.316 µM, first compound 0.0949 µM.
Where [15] appears, read: second compound 0.316 µM, first compound 0.3 µM.
Setting [16] is: second compound 0.316 µM, first compound 0.949 µM.
The mark [17] stands for this setting: second compound 0.316 µM, first compound 3 µM.
Where [18] appears, read: second compound 1 µM, first compound 0.00949 µM.
Setting [19] is: second compound 1 µM, first compound 0.03 µM.
The mark [20] stands for this setting: second compound 1 µM, first compound 0.0949 µM.
[21] abbreviates: second compound 1 µM, first compound 0.3 µM.
The mark [22] stands for this setting: second compound 1 µM, first compound 0.949 µM.
[23] abbreviates: second compound 1 µM, first compound 3 µM.
Where [24] appears, read: second compound 3.16 µM, first compound 0.00949 µM.
The mark [25] stands for this setting: second compound 3.16 µM, first compound 0.03 µM.
Where [26] appears, read: second compound 3.16 µM, first compound 0.0949 µM.
Setting [27] is: second compound 3.16 µM, first compound 0.3 µM.
[28] abbreviates: second compound 3.16 µM, first compound 0.949 µM.
Where [29] appears, read: second compound 3.16 µM, first compound 3 µM.
Setting [30] is: second compound 10 µM, first compound 0.00949 µM.
Setting [31] is: second compound 10 µM, first compound 0.03 µM.
The mark [32] stands for this setting: second compound 10 µM, first compound 0.0949 µM.
The mark [33] stands for this setting: second compound 10 µM, first compound 0.3 µM.
[34] abbreviates: second compound 10 µM, first compound 0.949 µM.
The mark [35] stands for this setting: second compound 10 µM, first compound 3 µM.
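Also: exposure lasted seven days after three days of spheroid growth.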
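For viability, T/C in this document: 100% = DMSO vehicle control luminescence.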

As for `CCN(c1cc(-c2ccc(CN3CCOCC3)cc2)cc(C(=O)NCc2c(C)cc(C)[nH]c2=O)c1C)C1CCOCC1` + NC1CC1c1ccc(-c2cccc(O)c2)cc1, the IC50 under setting [1] was above 3000 nM; the 50% inhibitory concentration (IC50) under setting [2] was above 3000 nM; the IC50 under setting [3] is above 3000 nM; the half-maximal inhibitory concentration (IC50) under setting [4] was above 3000 nM; the 50% inhibitory concentration (IC50) under setting [5] was above 3000 nM. The viability, T/C is, setting by setting: under setting [6], 86.5%; under setting [7], 84.8%; under setting [8], 81.9%; under setting [9], 73.5%; under setting [10], 79.4%; under setting [11], 66.9%. Moreover, the viability, T/C runs as follows: under setting [12], 96.8%; under setting [13], 92.2%; under setting [14], 83.4%; under setting [15], 89.9%; under setting [16], 86%; under setting [17], 70%. Besides, the viability, T/C was 105% under setting [18]; 93% under setting [19]; 88.2% under setting [20]; 91.5% under setting [21]; 88.6% under setting [22]; 79.2% under setting [23]. Also, the viability, T/C is, setting by setting: under setting [24], 99.7%; under setting [25], 83.3%; under setting [26], 73.8%; under setting [27], 83.2%; under setting [28], 88.6%; under setting [29], 78.5%. Also, the viability, T/C was 78.4% under setting [30]; 72.9% under setting [31]; 69.2% under setting [32]; 63% under setting [33]; 71.1% under setting [34]; 61.1% under setting [35].

With `CC1(C)CCC(CN2CCN(c3ccc(C(=O)NS(=O)(=O)c4ccc(NCC5CCOCC5)c([N+](=O)[O-])c4)c(Oc4cnc5[nH]ccc5c4)c3)CC2)=C(c2ccc(Cl)cc2)C1`, the viability, T/C was 107% and 103% (compound 0.0316 µM); 111% and 102% (compound 0.1 µM); 111% and 99% (compound 0.316 µM); 109% and 106% (compound 1 µM); 111% and 102% (compound 3.16 µM); 34.5% and 27.7% (compound 10 µM). The 50% inhibitory concentration (IC50) (curve of compound) was 7890 nM and 7100 nM.

In the case of `O=C(C=Cc1cccc(S(=O)(=O)Nc2ccccc2)c1)NO`, the viability, T/C (compound 0.00949 µM) was 97.1% and 80.1%; the viability, T/C (compound 0.03 µM) was 76.2% and 59%; the viability, T/C (compound 0.0949 µM) is 51.9% and 41.6%; the viability, T/C (compound 0.3 µM) was 38.6% and 33.9%; the viability, T/C (compound 0.949 µM) was 28.6% and 14.6%; the viability, T/C (compound 3 µM) is 3.45% and 0.83%. Further, the half-maximal inhibitory concentration (IC50) (curve of compound) is 158 nM and 66 nM.

Take `CC1COCCN1c1cc(C2(S(C)(=N)=O)CC2)nc(-c2ccnc3[nH]ccc23)n1` (stereo not given) + NC1CC1c1ccc(-c2cccc(O)c2)cc1: the 50% inhibitory concentration (IC50) worked out at 357 nM under setting [1]; 435 nM under setting [2]; 501 nM under setting [3]; 259 nM under setting [4]; 152 nM under setting [5]. Also, the viability, T/C is 97.8% (second compound 0.1 µM, first compound 0.0316 µM); 78.5% (second compound 0.1 µM, first compound 0.1 µM); 51.9% (second compound 0.1 µM, first compound 0.316 µM); 35% (second compound 0.1 µM, first compound 1 µM); 28.9% (second compound 0.1 µM, first compound 3.16 µM); 27.7% (second compound 0.1 µM, first compound 10 µM). Moreover, the viability, T/C reads like this: (second compound 0.316 µM, first compound 0.0316 µM) 112%; (second compound 0.316 µM, first compound 0.1 µM) 76.6%; (second compound 0.316 µM, first compound 0.316 µM) 55%; (second compound 0.316 µM, first compound 1 µM) 38.2%; (second compound 0.316 µM, first compound 3.16 µM) 31.8%; (second compound 0.316 µM, first compound 10 µM) 25.2%. Besides, the viability, T/C reads like this: (second compound 1 µM, first compound 0.0316 µM) 101%; (second compound 1 µM, first compound 0.1 µM) 77.4%; (second compound 1 µM, first compound 0.316 µM) 55.3%; (second compound 1 µM, first compound 1 µM) 41.5%; (second compound 1 µM, first compound 3.16 µM) 29.1%; (second compound 1 µM, first compound 10 µM) 22.4%. Besides, the viability, T/C reads like this: (second compound 3.16 µM, first compound 0.0316 µM) 88.5%; (second compound 3.16 µM, first compound 0.1 µM) 65.3%; (second compound 3.16 µM, first compound 0.316 µM) 46.1%; (second compound 3.16 µM, first compound 1 µM) 35%; (second compound 3.16 µM, first compound 3.16 µM) 31.5%; (second compound 3.16 µM, first compound 10 µM) 24.6%. The viability, T/C is, setting by setting: (second compound 10 µM, first compound 0.0316 µM) 81%; (second compound 10 µM, first compound 0.1 µM) 58.4%; (second compound 10 µM, first compound 0.316 µM) 34.6%; (second compound 10 µM, first compound 1 µM) 29.3%; (second compound 10 µM, first compound 3.16 µM) 25.8%; (second compound 10 µM, first compound 10 µM) 22.8%.

Regarding `NS(=O)(=O)OCC1CC(n2ccc3c(NC4CCc5ccccc54)ncnc32)CC1O` (stereo not given), the viability, T/C (compound 0.00949 µM) was 105% and 114%; the viability, T/C (compound 0.03 µM) was 120% and 108%; the viability, T/C (compound 0.0949 µM) was 103% and 94.9%; the viability, T/C (compound 0.3 µM) was 59.1% and 27.2%; the viability, T/C (compound 0.949 µM) was 21.5% and 8.78%; the viability, T/C (compound 3 µM) is 14% and 6.66%. The 50% inhibitory concentration (IC50) (curve of compound) was 395 nM and 204 nM.

For `NS(=O)(=O)OCC1CC(n2ccc3c(NC4CCc5ccccc54)ncnc32)CC1O` (stereo not given) + NC1CC1c1ccc(-c2cccc(O)c2)cc1, the IC50 reads like this: under setting [1], 221 nM; under setting [2], 230 nM; under setting [3], 219 nM; under setting [4], 202 nM; under setting [5], 155 nM. Further, the viability, T/C reads like this: under setting [6], 123%; under setting [7], 144%; under setting [8], 112%; under setting [9], 27.5%; under setting [10], 10.8%; under setting [11], 8.35%. For the same compound, the viability, T/C is, setting by setting: under setting [12], 124%; under setting [13], 150%; under setting [14], 127%; under setting [15], 26.7%; under setting [16], 12.9%; under setting [17], 8.2%. The viability, T/C under setting [18] was 135%; the viability, T/C under setting [19] is 159%; the viability, T/C under setting [20] is 111%; the viability, T/C under setting [21] was 28.3%; the viability, T/C under setting [22] was 13%; the viability, T/C under setting [23] is 10.2%. The viability, T/C under setting [24] was 122%; the viability, T/C under setting [25] was 157%; the viability, T/C under setting [26] is 94.5%; the viability, T/C under setting [27] is 29.7%; the viability, T/C under setting [28] was 10.5%; the viability, T/C under setting [29] was 9.87%. In addition, the viability, T/C is, setting by setting: under setting [30], 126%; under setting [31], 139%; under setting [32], 71.8%; under setting [33], 27%; under setting [34], 12.9%; under setting [35], 9.23%.

In the case of `COc1ccc([C@@H](O)c2cc(-c3ncnc4cc(N5CCOCC5)ccc34)c(F)cc2Cl)nn1`, the viability, T/C is 91.2% and 99.6% (compound 0.0316 µM); 89.8% and 86.9% (compound 0.1 µM); 67.2% and 52.7% (compound 0.316 µM); 48.6% and 41.2% (compound 1 µM); 37.1% and 26.7% (compound 3.16 µM); 22.2% and 14.9% (compound 10 µM). Moreover, for the setting “curve of compound”, the IC50 was 1000 nM and 524 nM.

Regarding `Nc1ncn(C2CC(O)C(CO)O2)c(=O)n1` (stereo not given), the viability, T/C reads like this: (compound 0.00316 µM) 103% and 98.2%; (compound 0.01 µM) 99.5% and 83.4%; (compound 0.0316 µM) 96.5% and 72.9%; (compound 0.1 µM) 86.3% and 58.4%; (compound 0.316 µM) 73.2% and 54.2%; (compound 1 µM) 67.8% and 49.4%. In addition, the IC50 (curve of compound) was > 1000 nM and 870 nM.

These data come from PubChem BioAssay AID1918945 (Molecular Pharmacology Branch, DTP, NCI, 2023).
